Test results taken from ChEMBL document CHEMBL5625175, “Quinazoline-based VEGFR-2 inhibitors as potential anti-angiogenic agents: A contemporary perspective of SAR and molecular docking studies” (Eur J Med Chem, 2023).
In brackets after ≈: the same amount, converted by molar mass. One block for each compound: values may come before it.

What was measured:
HepG2 [1] = test: Cytotoxicity against human HepG2 cells assessed as cell growth inhibition; type: functional, cell-based
HCT-116 [2] = test: Cytotoxicity against human HCT-116 cells assessed as cell growth inhibition; type: functional, cell-based
WISH = test: Cytotoxicity against human WISH cells assessed as cell growth inhibition; type: functional, cell-based
HCT-116 [3] = test: Antiproliferative activity against human HCT-116 cells assessed as reduction in cell growth incubated for 24 hrs by MTT assay; type: functional, cell-based; conditions: HCT-116, 24 h
MCF7 [4] = test: Antiproliferative activity against human MCF7 cells assessed as reduction in cell growth incubated for 24 hrs by MTT assay; type: functional, cell-based; conditions: MCF7, 24 h
[5] = target: T1, Vascular endothelial growth factor receptor 1 (Homo sapiens, UniProt P17948); test: Inhibition of VEGFR-1 (unknown origin) by HTRF method
T1 sequence (P17948 whole entry): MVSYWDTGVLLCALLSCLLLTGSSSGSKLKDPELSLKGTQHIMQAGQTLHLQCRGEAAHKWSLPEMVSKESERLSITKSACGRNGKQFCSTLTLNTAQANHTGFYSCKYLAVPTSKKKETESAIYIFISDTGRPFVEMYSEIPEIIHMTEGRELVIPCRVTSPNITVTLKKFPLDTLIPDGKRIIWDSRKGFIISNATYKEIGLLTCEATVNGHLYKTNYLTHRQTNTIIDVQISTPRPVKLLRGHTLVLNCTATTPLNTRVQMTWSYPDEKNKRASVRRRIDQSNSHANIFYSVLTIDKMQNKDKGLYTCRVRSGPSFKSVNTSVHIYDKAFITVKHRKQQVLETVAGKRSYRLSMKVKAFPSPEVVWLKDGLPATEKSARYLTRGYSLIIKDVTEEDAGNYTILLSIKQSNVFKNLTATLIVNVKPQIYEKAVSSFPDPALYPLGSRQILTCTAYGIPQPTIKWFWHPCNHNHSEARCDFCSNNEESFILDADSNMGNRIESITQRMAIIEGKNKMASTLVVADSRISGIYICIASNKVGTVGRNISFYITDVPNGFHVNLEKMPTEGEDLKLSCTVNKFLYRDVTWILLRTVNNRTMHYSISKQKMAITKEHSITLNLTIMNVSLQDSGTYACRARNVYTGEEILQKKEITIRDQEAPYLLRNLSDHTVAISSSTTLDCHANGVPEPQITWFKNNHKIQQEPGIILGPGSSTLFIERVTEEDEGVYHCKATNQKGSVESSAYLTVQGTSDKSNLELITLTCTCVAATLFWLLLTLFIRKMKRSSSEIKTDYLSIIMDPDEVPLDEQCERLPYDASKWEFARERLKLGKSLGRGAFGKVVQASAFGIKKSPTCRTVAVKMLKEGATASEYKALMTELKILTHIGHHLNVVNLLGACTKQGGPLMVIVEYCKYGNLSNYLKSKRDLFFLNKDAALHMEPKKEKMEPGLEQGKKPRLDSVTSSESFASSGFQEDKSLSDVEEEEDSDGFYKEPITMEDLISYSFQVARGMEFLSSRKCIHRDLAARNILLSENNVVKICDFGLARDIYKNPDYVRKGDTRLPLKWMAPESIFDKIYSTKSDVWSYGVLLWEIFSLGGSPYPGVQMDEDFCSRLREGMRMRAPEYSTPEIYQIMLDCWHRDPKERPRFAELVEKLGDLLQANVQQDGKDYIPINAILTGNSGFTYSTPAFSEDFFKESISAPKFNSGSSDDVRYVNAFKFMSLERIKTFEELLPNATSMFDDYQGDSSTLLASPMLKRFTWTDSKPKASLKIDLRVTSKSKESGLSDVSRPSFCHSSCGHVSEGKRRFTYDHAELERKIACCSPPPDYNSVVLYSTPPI

[6] = target: T1, Vascular endothelial growth factor receptor 1; test: Inhibition of VEGFR-1 (unknown origin) at 10 uM relative to control
MHCC97H = test: Antiproliferative activity against human MHCC97H cells assessed as reduction in cell viability incubated for 48 hrs by CCK-8 assay; type: functional, cell-based
HUVEC [7] = test: Antiproliferative activity against HUVEC cells assessed as reduction in cell viability incubated for 48 hrs by CCK-8 assay; type: functional, cell-based; conditions: Homo sapiens
HEK293 = test: Cytotoxicity against HEK293 cells assessed as cell growth inhibition measured after 48 hrs by CCK-8 assay; type: functional, cell-based; conditions: Homo sapiens, HEK293, 48 h
L02 = test: Cytotoxicity against human L02 cells assessed as cell growth inhibition measured after 48 hrs by CCK-8 assay; type: functional, cell-based; conditions: L02, 48 h
[8] = target: T2, Vascular endothelial growth factor receptor 2 (Homo sapiens, UniProt P35968)
T2 sequence (P35968 whole entry): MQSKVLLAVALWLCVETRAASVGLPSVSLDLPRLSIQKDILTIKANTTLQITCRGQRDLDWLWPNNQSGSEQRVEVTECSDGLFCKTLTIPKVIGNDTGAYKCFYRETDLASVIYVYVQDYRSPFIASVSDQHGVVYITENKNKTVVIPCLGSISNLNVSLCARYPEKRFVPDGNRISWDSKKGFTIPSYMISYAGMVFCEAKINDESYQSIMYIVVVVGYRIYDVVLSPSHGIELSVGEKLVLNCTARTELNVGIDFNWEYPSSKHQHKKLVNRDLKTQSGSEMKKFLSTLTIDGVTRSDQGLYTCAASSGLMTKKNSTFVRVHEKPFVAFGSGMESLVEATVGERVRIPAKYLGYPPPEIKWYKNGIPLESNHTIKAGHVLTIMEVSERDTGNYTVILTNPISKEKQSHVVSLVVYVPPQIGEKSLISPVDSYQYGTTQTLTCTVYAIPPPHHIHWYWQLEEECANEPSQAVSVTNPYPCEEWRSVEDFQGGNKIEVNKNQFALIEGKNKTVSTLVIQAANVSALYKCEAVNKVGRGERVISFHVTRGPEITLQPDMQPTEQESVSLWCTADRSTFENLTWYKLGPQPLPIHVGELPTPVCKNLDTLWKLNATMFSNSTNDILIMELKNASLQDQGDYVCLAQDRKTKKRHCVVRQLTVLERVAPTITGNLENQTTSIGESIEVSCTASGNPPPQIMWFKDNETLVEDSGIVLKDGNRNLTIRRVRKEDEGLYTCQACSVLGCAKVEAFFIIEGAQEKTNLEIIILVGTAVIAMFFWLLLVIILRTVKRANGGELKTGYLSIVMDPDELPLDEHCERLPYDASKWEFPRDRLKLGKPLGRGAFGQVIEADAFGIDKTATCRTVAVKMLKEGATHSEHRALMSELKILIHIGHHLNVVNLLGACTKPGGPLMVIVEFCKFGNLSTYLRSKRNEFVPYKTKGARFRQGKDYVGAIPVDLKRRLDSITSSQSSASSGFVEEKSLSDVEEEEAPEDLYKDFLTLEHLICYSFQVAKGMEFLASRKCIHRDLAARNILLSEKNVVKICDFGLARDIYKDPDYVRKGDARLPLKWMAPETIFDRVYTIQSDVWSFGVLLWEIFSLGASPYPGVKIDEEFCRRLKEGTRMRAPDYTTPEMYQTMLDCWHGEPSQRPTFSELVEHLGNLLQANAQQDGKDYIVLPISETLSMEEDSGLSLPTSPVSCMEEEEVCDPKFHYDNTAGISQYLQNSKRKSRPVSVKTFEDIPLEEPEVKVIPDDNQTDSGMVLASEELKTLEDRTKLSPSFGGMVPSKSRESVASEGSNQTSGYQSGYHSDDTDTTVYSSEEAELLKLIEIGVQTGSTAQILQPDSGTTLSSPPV

MDA-MB-231 [9] = test: Cytotoxicity against human MDA-MB-231 cells assessed as reduction in cell viability incubated for 24 hrs by MTT assay; type: functional, cell-based; conditions: MDA-MB-231, 24 h
MDA-MB-231 [10] = test: Cytotoxicity against human MDA-MB-231 cells assessed as reduction in cell viability incubated for 48 hrs by MTT assay; type: functional, cell-based; conditions: MDA-MB-231, 48 h
Angiopoietin-1 receptor = Angiopoietin-1 receptor (Homo sapiens, UniProt Q02763); test: Inhibition of TIE-2 (unknown origin)
Ephrin type-B receptor 4 = Ephrin type-B receptor 4 (Homo sapiens, UniProt P54760)
Ephrin type-B receptor 4, sequence (P54760 whole entry): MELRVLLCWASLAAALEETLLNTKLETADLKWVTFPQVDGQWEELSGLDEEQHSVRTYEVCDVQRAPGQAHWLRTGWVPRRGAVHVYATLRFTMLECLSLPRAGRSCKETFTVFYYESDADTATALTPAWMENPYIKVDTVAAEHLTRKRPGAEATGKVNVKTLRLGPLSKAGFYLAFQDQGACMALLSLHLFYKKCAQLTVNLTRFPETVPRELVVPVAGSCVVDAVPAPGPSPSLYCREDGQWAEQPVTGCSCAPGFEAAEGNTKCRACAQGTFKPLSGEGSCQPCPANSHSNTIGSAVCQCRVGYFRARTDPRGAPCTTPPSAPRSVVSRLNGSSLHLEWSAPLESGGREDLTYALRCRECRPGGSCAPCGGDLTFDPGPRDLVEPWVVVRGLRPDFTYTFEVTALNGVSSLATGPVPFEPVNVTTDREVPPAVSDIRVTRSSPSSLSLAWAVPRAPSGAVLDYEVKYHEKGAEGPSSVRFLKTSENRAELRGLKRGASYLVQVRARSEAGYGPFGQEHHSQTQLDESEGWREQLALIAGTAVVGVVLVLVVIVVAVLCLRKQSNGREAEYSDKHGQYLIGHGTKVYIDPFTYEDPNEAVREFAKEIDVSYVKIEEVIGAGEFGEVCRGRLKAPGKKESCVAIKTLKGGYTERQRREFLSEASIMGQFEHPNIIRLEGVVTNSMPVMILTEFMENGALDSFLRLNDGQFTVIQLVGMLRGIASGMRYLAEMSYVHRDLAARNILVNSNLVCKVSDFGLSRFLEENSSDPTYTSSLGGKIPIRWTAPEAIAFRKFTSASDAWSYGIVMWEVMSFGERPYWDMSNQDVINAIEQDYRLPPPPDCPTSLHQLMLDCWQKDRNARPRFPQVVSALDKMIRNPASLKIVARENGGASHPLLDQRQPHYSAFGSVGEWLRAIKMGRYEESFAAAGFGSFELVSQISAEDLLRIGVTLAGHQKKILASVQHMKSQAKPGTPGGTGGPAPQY

[11] = target: Platelet-derived growth factor receptor beta (Homo sapiens, UniProt P09619); test: Inhibition of human recombinant PDGFRbeta using poly (Glu, Tyr)4:1 as substrate measured after 60 mins by ELISA
Platelet-derived growth factor receptor beta, sequence (P09619 whole entry): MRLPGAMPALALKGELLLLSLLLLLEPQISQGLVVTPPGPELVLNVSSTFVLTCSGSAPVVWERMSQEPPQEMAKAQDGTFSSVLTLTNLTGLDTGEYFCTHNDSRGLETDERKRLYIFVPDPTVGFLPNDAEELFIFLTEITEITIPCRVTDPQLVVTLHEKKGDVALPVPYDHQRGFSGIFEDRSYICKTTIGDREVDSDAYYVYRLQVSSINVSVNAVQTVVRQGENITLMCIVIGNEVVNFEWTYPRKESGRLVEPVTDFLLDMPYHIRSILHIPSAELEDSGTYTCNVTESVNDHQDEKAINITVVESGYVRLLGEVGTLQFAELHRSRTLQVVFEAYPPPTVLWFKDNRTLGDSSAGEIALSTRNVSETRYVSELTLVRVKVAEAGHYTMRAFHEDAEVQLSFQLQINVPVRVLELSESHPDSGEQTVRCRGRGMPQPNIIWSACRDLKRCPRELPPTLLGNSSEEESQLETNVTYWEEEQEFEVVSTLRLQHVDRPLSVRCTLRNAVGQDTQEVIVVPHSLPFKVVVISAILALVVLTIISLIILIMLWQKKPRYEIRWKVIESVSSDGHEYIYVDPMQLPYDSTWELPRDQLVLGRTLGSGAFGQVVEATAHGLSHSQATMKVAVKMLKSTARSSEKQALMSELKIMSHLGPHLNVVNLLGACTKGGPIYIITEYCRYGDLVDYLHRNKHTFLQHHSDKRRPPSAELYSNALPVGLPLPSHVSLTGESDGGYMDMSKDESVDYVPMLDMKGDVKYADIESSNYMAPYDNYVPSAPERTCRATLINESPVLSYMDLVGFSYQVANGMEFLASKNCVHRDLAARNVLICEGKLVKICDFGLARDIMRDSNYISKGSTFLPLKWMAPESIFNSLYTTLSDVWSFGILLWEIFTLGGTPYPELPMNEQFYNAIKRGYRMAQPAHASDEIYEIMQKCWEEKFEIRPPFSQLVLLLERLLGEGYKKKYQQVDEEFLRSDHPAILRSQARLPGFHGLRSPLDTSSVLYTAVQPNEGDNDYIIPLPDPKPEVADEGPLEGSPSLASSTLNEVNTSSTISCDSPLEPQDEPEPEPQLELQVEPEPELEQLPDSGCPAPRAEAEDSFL

A549 [12] = test: cells; conditions: Homo sapiens, A549, 48 h
MCF7 [13] = test: cells; conditions: Homo sapiens, MCF7, 48 h
NCI-H460 = test: cells; conditions: Homo sapiens, NCI-H460, 48 h
Macrophage = test: cells; conditions: Homo sapiens, 48 h
[14] = target: T2, Vascular endothelial growth factor receptor 2; test: Inhibition of human VEGFR-2 using biotinylated synthetic peptide biotin-aminohexyl-EEEEYFELVAKKKK-NH2 as substrate pre-incubated for 30 mins and measured after 30 mins by FRET assay
HUVEC [15] = test: Antiproliferative activity against VEGF-stimulated HUVEC cells assessed as cell growth inhibition measured after 24 hrs by BrdUrd incorporation based spectrophotometric analysis; type: functional; conditions: Homo sapiens
HepG2 [16] = test: Antiproliferative activity against human HepG2 cells assessed as reduction in cell viability measured after 72 hrs by MTT assay; type: functional, cell-based; conditions: HepG2, 72 h
MCF7 [17] = test: Antiproliferative activity against human MCF7 cells assessed as reduction in cell viability measured after 72 hrs by MTT assay; type: functional, cell-based; conditions: MCF7, 72 h
[18] = target: T2, Vascular endothelial growth factor receptor 2; test: Inhibition of N-terminal polyhistidine human recombinant KDR using poly-(Glu4-Tyr) peptide as substrate incubated for 60 mins by DELFIA/time-resolved fluorometric analysis
A549 [19] = test: Antitumor activity against human A549 cells assessed as reduction in cell viability incubated for 48 hrs by CCK-8 assay; type: functional, cell-based; conditions: A549, 48 h
HT-29 = test: Antitumor activity against human HT-29 cells assessed as reduction in cell viability incubated for 48 hrs by CCK-8 assay; type: functional, cell-based; conditions: HT-29, 48 h
MCF7 [20] = test: Antitumor activity against human MCF7 cells assessed as reduction in cell viability incubated for 48 hrs by CCK-8 assay; type: functional, cell-based; conditions: MCF7, 48 h
B16 = test: Antiproliferative activity against mouse B16 cells assessed as reduction in cell viability incubated for 48 hrs by MTT assay; type: functional, cell-based; conditions: B16, 48 h
HCT-116 [21] = test: cells; conditions: Homo sapiens, HCT-116, 48 h
MCF7 [22] = test: cells; conditions: Homo sapiens, MCF7, 48 h; remark: listed apart in the source
[23] = Intrinsic clearance in human hepatocytes at 0.5 uM measured after 10 mins by LC-MS/MS analysis; type: ADME, cell-based, Hepatocyte

SMILES: Cc1ccc2nc(-c3cccnc3)nc(NNC(=S)NC3CCCCC3)c2c1
IC50 (HepG2 [1]): 10.4 µM
IC50 (HCT-116 [2]): 3.37 µM
IC50 (WISH): 49.6 µM

SMILES: COc1cc2ncnc(Nc3ccc(-c4noc(Cc5cc6ccccc6[nH]5)n4)cc3)c2cc1OC
IC50 [5]: 17 nM
inhibition [6]: 91%

SMILES: COCCOc1cc2ncnc(Oc3ccc(NC(=O)C4(C(=O)Nc5ccc(F)cc5)CC4)cc3F)c2c2c1OCCO2
IC50 (MHCC97H): 15.1 µg/mL (≈ 25.5 µM)
IC50 (HUVEC [7]): 12.6 µg/mL (≈ 21.3 µM)
IC50 (HEK293): 11.9 µg/mL (≈ 20.1 µM)
IC50 (L02): 12.2 µg/mL (≈ 20.6 µM)

SMILES: COc1cccc(CNC(=O)CSc2nc3ccccc3c(=O)n2-c2ccc(S(N)(=O)=O)cc2)c1OC
IC50 [8]: 247 nM
IC50 (MDA-MB-231 [9]): 340 nM
IC50 (MDA-MB-231 [10]): 510 nM

SMILES: O=C(Nc1ccc(-c2ccc3c(=O)[nH]cnc3c2)cc1)Nc1ccc(F)c(F)c1
IC50 (Angiopoietin-1 receptor): 8.87 µM
IC50 (Ephrin type-B receptor 4): 3.21 µM
IC50 [11]: 98.5 µM

SMILES: COc1ccc(Cc2nnc(COc3ncnc4ccccc34)o2)cc1OC
IC50 (A549 [12]): 580 nM
IC50 (MCF7 [13]): 350 nM
IC50 (NCI-H460): 390 nM
IC50 (Macrophage): 288 µM

SMILES: COc1cc2nc(-c3ccccc3)n(-c3nnc(-c4ccc(Cl)cc4)s3)c(=O)c2cc1OC
IC50 [14]: 3.8 nM
IC50 (HUVEC [15]): 5.5 nM

SMILES: CCn1c(SCCCN2C(=O)c3ccccc3C2=O)nc2cc3ccccc3cc2c1=O
IC50 (HepG2 [16]): 26 µM
IC50 (MCF7 [17]): 9.4 µM

SMILES: O=[N+]([O-])c1ccc(COc2ncnc3ccc([N+](=O)[O-])cc23)cc1
IC50 [18]: 4.71 nM

SMILES: Cc1ncc([N+](=O)[O-])n1CCOc1ncnc2ccc([N+](=O)[O-])cc12
IC50 (A549 [12]): 1520 nM
IC50 (MCF7 [13]): 1610 nM
IC50 (NCI-H460): 1230 nM
IC50 (Macrophage): 290 µM

SMILES: COc1cc2ncnc(Nc3cc(O)c(C)cc3F)c2cc1OC
CLH [23]: 91.9 µL/min

Now from value to compound, other results behind:

IC50 (HCT-116 [3]): 4.83 µM
IC50 (MCF7 [4]): 4.58 µM
SMILES: CCn1c(SCC(=O)Nc2ccc(/C(C)=N/O)cc2)nc2ccccc2c1=O

IC50 (A549 [12]): 620 nM
IC50 (NCI-H460): 390 nM
SMILES: COc1cc2nccc(Oc3ccc(NC(=O)Nc4cc(C)on4)c(Cl)c3)c2cc1OC [TIVOZANIB]
IC50 (Macrophage): 227 µM

IC50 (A549 [19]): 1760 nM
IC50 (HT-29): 810 nM
IC50 (MCF7 [20]): 2490 nM
SMILES: Cc1ccc(Nc2ncnc3cc(NC(=O)Nc4ccc(Cl)c(C(F)(F)F)c4)ccc23)cc1

IC50 (B16): 9.29 µM
IC50 (HCT-116 [21]): 10.6 µM
IC50 (MCF7 [22]): 17.9 µM
SMILES: CNC(=O)c1cc(Oc2ccc(NC(=O)Nc3ccc(Cl)c(C(F)(F)F)c3)cc2)ccn1 [SORAFENIB]
IC50 (HepG2 [1]): 19.3 µM
IC50 (HCT-116 [2]): 6.82 µM
IC50 (WISH): 17.5 µM

IC50 (B16): 6.11 µM
IC50 (HCT-116 [21]): 9.13 µM
IC50 (MCF7 [22]): 17.7 µM
SMILES: COc1cc2ncnc(Oc3cccc(NC(=S)Nc4ccc(Cl)c(C(F)(F)F)c4)c3)c2cc1OC
